From US9757408B2 (Hayashibara Co., Ltd., priority 2010, dated 2017)
Marks after values point to notes of the source that are not given here.

What was measured:
[1] = tested on: mice with colitis induced by dextran sulfate sodium; assay: Dextran sulfate sodium colitis mice: diarrhea/hematochezia scores, DAI, haptoglobin (Experiment 13); assay type: in vivo, C57BL/6 mice; settings: dextran sulfate sodium intake, 94 mg/kg orally once a day; for Content of haptoglobin: blood on 11th day
Protocol: Dextran sulfate sodium (commercialized by MP Biomedicals, CA, USA, molecular weight of 36,000 to 50,000) was dissolved in tap water, and all the mice of these five groups consisting of eight heads each were allowed to freely take the solution for five days (Experiment groups 2 to 5). […] The eight mice of the remaining one group were administered through a gastric tube with PBS once a day at a dose of 0.2 mL/head over 11 days from the day of initiating the administration of dextran sulfate sodium (Experiment group 2). The five mice of one group, which had not been administered with dextran sulfate sodium, were bred for 11 days on the normal feed while allowing them to take tap water freely (Experiment group 1).
The mice were weighed and their degree of diarrhea and hematochezia were macroscopically observed every day over 11 days from the day of initiating the intake of dextran sulfate sodium. The body weight reduction percentage (%) was determined by dividing the body weight of a mouse at 11th day after initiating the intake of dextran sulfate sodium by the body weight of the mouse at the day of initiating the intake, and multiplying the value by 100, and subtracting the resulting value from 100. The scores of diarrhea and hematochezia and the body weight reduction percentage (%) in each mouse were scored according to the criteria as shown in Table 13. For each group, the average of the total scores of diarrhea and hematochezia on days ranging from the day (intake day 0) of initiating the intake of dextran sulfate sodium to 11th day therefrom (intake day 10) are determined and shown in Table 14. The total scores of diarrhea, hematochezia, and body weight reduction percentage for each mouse at 11th day (intake day 10) after initiating the intake of dextran sulfate sodium are calculated for disease activity index (DAI) used as an index for colitis, averaged for each group, and shown in Table 14. On 11th day after initiating the intake of dextran sulfate sodium, each mouse was collected blood, followed by assaying haptoglobin or an acute phase protein, as an index for inflammatory, on an ELISA kit commercialized by Life Diagnostics USA, and averaging the data for each group. The results are in Table 14 in parallel. Since one mouse in Experiment group 2 administered with only dextran sulfate sodium was dead at 11th day after initiating the intake of dextran sulfate sodium, the results of Experiment group 2 at 11th day (intake day 10) after initiating the intake of dextran sulfate sodium represent the average of seven mice.

[2] = tested on: tissue factor expression in HUVEC cells; assay: Expression of tissue factor in HUVEC cells, ELISA of cell lysate (Experiment 6-2); assay type: cell-based, human; settings: IL-1β, IFN-γ; for Amount of expressed tissue factor: HUVEC, LPS 10 μg/mL
Protocol: Thereafter, a solution of LPS, IL-1β, and IFN-γ were respectively prepared to give respective concentrations of 10 μg/mL, 2 ng/mL, and 500 IU/mL, added to the cells in an amount of 50 μL/well, and incubated at 37° C. for 5.5 hours in a 5% v/v CO2 incubator. After the culture, the cells were washed twice with PBS, followed by adding PBS to the resulting cells in a volume of 50 μL/well. The multi-plates were subjected to a freezing at −80° C. and thawing process thrice, followed by adding 50 mM Tris buffer (pH 7.4) containing 100 mM NaCl and 0.2% Triton X-100 to the microplates in an amount of 50 μL/well, culturing the cells at 4° C. overnight to prepare a cell lysate. The content of tissue factor in the cell lysate was determined by “AssayMax Human Tissue Factor ELISA Kit”, a product name of ELISA commercialized by Assay Pro, USA.

[3] = tested on: mice with concanavalin A (Con A) induced liver disorder; assay: Concanavalin A induced liver disorder mice: GPT, GOT, liver necrosis score (Experiment 12); assay type: in vivo, BALB/c mice; parameters: Liver function GPT / Liver function GOT: unit not given here; settings: Con A 15 mg/kg i.v.; for Liver function GOT / Liver function GPT: 127 mg/kg i.v. simultaneously, serum 20 hours after Con A; for Conditions of liver tissue, Necrosis (average score): 127 mg/kg i.v., grades mild (1), moderate (2), severe (3)
Protocol: “TYPE IV”, a Con A specimen commercialized by Sigma-Aldrich Corporation, St. Louis, Mo. USA, was dissolved in physiological saline and intravenously administered to all the five mice in each six groups at a dose of 15 mg/0.2 mL. […] The five mice in the remaining one group as a control were intravenously administered with 0.2 mL/head of physiological saline, simultaneously with Con A (Experiment group 1).
For the mice in each group, they were collected blood at 20 hours after administering Con A, followed by assaying the activity of GPT and GOT in their sera with “TRANSAMINASE CII-TEST WAKO”, a commercialized assay kit produced by Wako Pure Chemical Industries Ltd., Tokyo, Japan, for use as an index for liver disorder due to hepatitis. […] The tissue specimens were stained with hematoxylin-eosin staining, followed by calculating an average of scores for judgement on the conditions of necrosis of liver tissues by microscopic observation, for use as an index for liver disorder. The results are in Table 12 in parallel. The conditions of necrosis of liver tissues were evaluated based on a microscopic observation standard of three grades of “mild (1)”, “moderate (2)”, and “severe (3)” and scored before determining the average for each group.

[4] = tested on: IFN-γ production of spleen cells; assay: IFN-γ production of spleen cells stimulated with anti-CD3 antibody, from gel-treated mice (Experiment 16); assay type: in vivo, NC/Nga mice; settings: for production level of IFN-γ of spleen cells stimulated with the anti-CD3 antibody: compared to mice applied with gel prepared by adding refined water (Experiment group 1); for Content of IFN-γ: supernatant of spleen cells stimulated with anti-CD3 antibody, picryl chloride-sensitized mice applied with gel
Protocol: On Friday of the 6th week of the induction (46th day after initiating the application), all the mice were sacrificed, followed by isolating their spleens and collecting spleen cells in usual manner. […] To each well 2 μg/mL of “Purified Mouse CD3ε Monoclonal Antibody”, a product name of an anti-CD3 antibody, commercialized by Cosmo Bio Co., Ltd., Tokyo, Japan, was added, and the cells were incubated at 37° C. for three days in a 5% v/v CO2 incubator, followed by assaying the levels of cytokines in each supernatant thereof.
The results are in Table 19 in parallel.

Compound | Content of haptoglobin [1] [mg/mL] | Total scores of diarrhea and hematochezia, day 0 [1] | Total scores of diarrhea and hematochezia, day 1 [1] | Total scores of diarrhea and hematochezia, day 2 [1] | Total scores of diarrhea and hematochezia, day 3 [1] | Total scores of diarrhea and hematochezia, day 4 [1] | Total scores of diarrhea and hematochezia, day 5 [1] | Total scores of diarrhea and hematochezia, day 6 [1] | Total scores of diarrhea and hematochezia, day 7 [1] | Total scores of diarrhea and hematochezia, day 8 [1] | Total scores of diarrhea and hematochezia, day 9 [1] | DAI (total scores of diarrhea, hematochezia, and body weight reduction percentage), day 10 [1] | Total scores of diarrhea and hematochezia, day 10 [1] | Liver function GOT [3] | Liver function GPT [3] | Conditions of liver tissue, Necrosis (average score) [3] | production level of IFN-γ of spleen cells stimulated with the anti-CD3 antibody [4] | Content of IFN-γ [4] [pg/mL] | other results
Nc1ncnc2c1ncn2[C@@H]1O[C@H](CO)[C@@H](O)[C@H]1O [AN, adenosine] | 4.0 | 0 | 0 | 0 | 0.3 | 1.0 | 1.4 | 1.3 | 1.4 | 1.4 | 1.4 | 4.6 | 1.6 | 4130* | 1917 | 2.5 | showed no difference | 12.1 | concentration which significantly inhibited the expression of tissue factor ([2]; HUVEC cells, LPS): at least 5 μM; Amount of expressed tissue factor ([2]; test substance 1 μM): 27.1; Amount of expressed tissue factor ([2]; test substance 2 μM): 26.6; Amount of expressed tissue factor ([2]; test substance 5 μM): 13.9**; Amount of expressed tissue factor ([2]; test substance 10 μM): 4.5**
OC[C@H]1O[C@@H](n2cnc3c(O)ncnc32)[C@H](O)[C@@H]1O [IN, inosine] | 3.9 | 0 | 0 | 0 | 0.1 | 0.8 | 1.1 | 1.2 | 1.1 | 1.2 | 1.2 | 4.1 | 1.3 | 5243 | 2061 | 2.6 | showed no difference | 13.2 | 
